pIC50: −log10 of the molar value.
Molecular target: T1, Recombinant human HSP90a (Homo sapiens, UniProt P07900)
T1 construct: host or cells: E. coli
Assay: HSP90 radioligand filter binding test ([3H]17AAG competition)
Settings: [3H]17AAG 0.08 μM, HSP90 1.5 μg/assay, 22° C., 30 min; read-out: IC50 (HSP90 inhibition)
Source text: Test Method for the Measurement of HSP90 Inhibitors
The binding of geldanamycin or 17-allylamino-17-demethoxygeldanamycin (17AAG) to HSP90 and competitive inhibition thereof can be utilised in order to determine the inhibitory activity of the compounds according to the invention (Carreras et al. 2003, Chiosis et al. 2002).
In the specific case, a radioligand filter binding test is used. The radioligand used here is tritium-labelled 17-allylaminogeldanamycin, [3H]17AAG. This filter binding test allows a targeted search for inhibitors which interfere with the ATP binding site.
Recombinant human HSP90a (E. coli expressed, 95% purity);
[3H]17AAG (17-allylaminogeldanamycin, [allylamino-2,3-^3H. Specific activity: 1.11×10^12 Bq/mmol (Moravek, MT-1717);
HEPES filter buffer (50 mM HEPES, pH 7.0, 5 mM MgCl2, BSA 0.01%)
Multiscreen FB (1 μm) filter plate (Millipore, MAFBNOB 50).
The 96-well microtitre filter plates are firstly irrigated and coated with 0.1% of polyethylenimine.
The test is carried out under the following conditions:
Reaction temperature 22° C.
Reaction time: 30 min., shaking at 800 rpm
50 mM HEPES HCl, pH 7.0, 5 mM MgCl2, 0.01% (w/v) of BSA
At the end of the reaction, the supernatant in the filter plate is removed by suction with the aid of a vacuum manifold (Multiscreen Separation System, Millipore), and the filter is washed twice.
The filter plates are then measured in a beta counter (Microbeta, Wallac) with scintillator (Microscint 20, Packard).
“% of control” is determined from the “counts per minutes” values, and the IC-50 value of a compound is calculated therefrom.

| SMILES | pIC50 |
| --- | --- |
| CCN(C)C(=O)c1ccccc1-c1ccc2nc(N)nc(C(=O)N3Cc4ccccc4C3)c2c1 [Compound A39] | 6.00 to 8.00 |
| CCN(CC)C(=O)c1cc(F)c(F)cc1-c1ccc2nc(N)nc(C(=O)N3Cc4ccccc4C3)c2c1 [Compound A69, 2-[2-Amino-4-(1,3-dihydroisoindole-2-carbonyl)quinazolin-6-yl]-N,N-diethyl-4,5-difluorobenzamide] | 6.00 to 8.00 |
| CNCCN(C)S(=O)(=O)c1ccccc1-c1ccc2nc(N)nc(C(=O)N3Cc4ccccc4C3)c2c1 [Compound A13, 2-[2-Amino-4-(1,3-dihydroisoindole-2-carbonyl)quinazolin-6-yl]-N-methyl-N-(2-methylaminoethyl)benzenesulfonamide] | 6.00 to 8.00 |
| CCN(CCO)C(=O)c1cc(F)c(F)cc1-c1ccc2nc(N)nc(C(=O)N3Cc4ccccc4C3)c2c1 [Compound A75, 2-[2-Amino-4-(1,3-dihydroisoindole-2-carbonyl)quinazolin-6-yl]-N-ethyl-4,5-difluoro-N-(2-hydroxyethyl)benzamide] | 6.00 to 8.00 |
| C[C@H]1CCCN1C(=O)c1ccccc1-c1ccc2nc(N)nc(C(=O)N3Cc4ccccc4C3)c2c1 [Compound A72, {2-Amino-6-[2-((S)-2-methylpyrrolidine-1-carbonyl)phenyl]quinazolin-4-yl}-(1,3-dihydroisoindol-2-yl)methanone] | 6.00 to 8.00 |
| Nc1nc(C(=O)N2Cc3ccccc3C2)c2cc(-c3ccccc3C(=O)NC3CCC3)ccc2n1 [Compound A46, 2-[2-Amino-4-(1,3-dihydroisoindole-2-carbonyl)quinazolin-6-yl]-N-cyclobutylbenzamide] | 6.00 to 8.00 |
| CC1CCCN1S(=O)(=O)c1ccccc1-c1ccc2nc(N)nc(C(=O)N3Cc4ccccc4C3)c2c1 (stereo not shown) [Compound A19, {2-Amino-6-[2-(2-methylpyrrolidine-1-sulfonyl)phenyl]quinazolin-4-yl}-(1,3-dihydroisoindol-2-yl)methanone] | 6.00 to 8.00 |
| CN(C)C(=O)c1ccccc1-c1ccc2nc(N)nc(C(=O)N3Cc4ccccc4C3)c2c1 [Compound A38] | 6.00 to 8.00 |
| CCNC(=O)c1cc(F)c(F)cc1-c1ccc2nc(N)nc(C(=O)N3Cc4ccccc4C3)c2c1 [Compound A74, 2-[2-Amino-4-(1,3-dihydroisoindole-2-carbonyl)quinazolin-6-yl]-N-ethyl-4,5-difluorobenzamide] | 6.00 to 8.00 |
| CCNC(=O)c1ccccc1-c1ccc2nc(N)nc(C(=O)N3Cc4ccccc4C3)c2c1 [Compound A41, 2-[2-Amino-4-(1,3-dihydroisoindole-2-carbonyl)quinazolin-6-yl]-N-ethylbenzamide] | 6.00 to 8.00 |
| CC(=O)NC1CCN(S(=O)(=O)c2ccccc2-c2ccc3nc(N)nc(C(=O)N4Cc5ccccc5C4)c3c2)C1 (stereo not shown) [Compound A20] | 6.00 to 8.00 |
| CNCCNS(=O)(=O)c1ccccc1-c1ccc2nc(N)nc(C(=O)N3Cc4ccccc4C3)c2c1 [Compound A16, 2-[2-amino-4-(1,3-dihydroisoindole-2-carbonyl)quinazolin-6-yl]-N-(2-methylaminoethyl)benzenesulfonamide] | 6.00 to 8.00 |
| C[N+]1([O-])CCN(S(=O)(=O)c2ccccc2-c2ccc3nc(N)nc(C(=O)N4Cc5ccccc5C4)c3c2)CC1 [Compound A7] | 6.00 to 8.00 |
| COc1cc(C(=O)NC(C)(C)C)c(-c2ccc3nc(N)nc(C(=O)N4Cc5ccccc5C4)c3c2)cc1OC [Compound A85, 2-[2-Amino-4-(1,3-dihydroisoindole-2-carbonyl)quinazolin-6-yl]-N-tert-butyl-4,5-dimethoxybenzamide] | < 5.00 |
| CNC(=O)C1CCCN1C(=O)c1ccccc1-c1ccc2nc(N)nc(C(=O)N3Cc4ccccc4C3)c2c1 (stereo not shown) [Compound A50, 1-{2-[2-amino-4-(1,3-dihydroisoindole-2-carbonyl)quinazolin-6-yl]benzoyl}pyrrolidine-2-methylamide] | 5.00 to 6.00 |
| CCN(CCO)S(=O)(=O)c1ccc(F)cc1-c1ccc2nc(N)nc(C(=O)N3Cc4ccccc4C3)c2c1 [Compound A82] | 6.00 to 8.00 |
| Nc1nc(C(=O)N2Cc3ccccc3C2)c2cc(-c3ccccc3S(=O)(=O)N3CCC(CO)C3)ccc2n1 (stereo not shown) [Compound A21, {2-Amino-6-[2-(3-hydroxymethylpyrrolidine-1-sulfonyl)phenyl]quinazolin-4-yl}-(1,3-dihydroisoindol-2-yl)methanone] | 6.00 to 8.00 |
| Nc1nc(C(=O)N2Cc3ccccc3C2)c2cc(-c3ccccc3C(=O)N3CCC(CO)C3)ccc2n1 (stereo not shown) [Compound A35] | 6.00 to 8.00 |
| Nc1nc(C(=O)N2Cc3ccccc3C2)c2cc(-c3ccccc3S(=O)(=O)NCCO)ccc2n1 [Compound A11, 2-[2-Amino-4-(1,3-dihydroisoindole-2-carbonyl)quinazolin-6-yl]-N-(2-hydroxyethyl)benzenesulfonamide] | 6.00 to 8.00 |
| CCN(CC)C(=O)c1cc(F)ccc1-c1ccc2nc(N)nc(C(=O)N3Cc4ccccc4C3)c2c1 [Compound A71, 2-[2-Amino-4-(1,3-dihydroisoindole-2-carbonyl)quinazolin-6-yl]-N,N-diethyl-5-fluorobenzamide] | 6.00 to 8.00 |
| CN(CCO)C(=O)c1ccccc1-c1ccc2nc(N)nc(C(=O)N3Cc4ccccc4C3)c2c1 [Compound A22] | 6.00 to 8.00 |
| Nc1nc(C(=O)N2Cc3ccccc3C2)c2cc(-c3ccccc3C(=O)N3CC[C@H](F)C3)ccc2n1 [Compound A62] | 6.00 to 8.00 |
| CCNS(=O)(=O)c1ccccc1-c1ccc2nc(N)nc(C(=O)N3Cc4ccccc4C3)c2c1 [Compound A5, 2-[2-Amino-4-(1,3-dihydroisoindole-2-carbonyl)quinazolin-6-yl]-N-ethylbenzenesulfonamide] | 6.00 to 8.00 |
| CCN(CC)C(=O)c1ccc(F)cc1-c1ccc2nc(N)nc(C(=O)N3Cc4ccccc4C3)c2c1 [Compound A70] | 6.00 to 8.00 |
| CCN(CC)S(=O)(=O)c1ccccc1-c1ccc2nc(N)nc(C(=O)N3Cc4ccccc4C3)c2c1 [Compound A45, 2-[2-Amino-4-(1,3-dihydroisoindole-2-carbonyl)quinazolin-6-yl]-N,N-diethylbenzenesulfonamide] | 6.00 to 8.00 |
| CCN(CCO)C(=O)c1ccccc1-c1ccc2nc(N)nc(C(=O)N3Cc4ccccc4C3)c2c1 [Compound A24] | 6.00 to 8.00 |
| Nc1nc(C(=O)N2Cc3ccccc3C2)c2cc(-c3ccccc3S(=O)(=O)N3CCCC3C(=O)NCCO)ccc2n1 (stereo not shown) [Compound A61, N-(2-hydroxyethyl)-1-{2-[2-amino-4-(1,3-dihydroisoindole-2-carbonyl)quinazolin-6-yl]benzenesulfonyl}pyrrolidine-2-carboxamide] | 6.00 to 8.00 |
| Nc1nc(C(=O)N2Cc3ccccc3C2)c2cc(-c3ccccc3S(=O)(=O)N3CC[C@H](F)C3)ccc2n1 [Compound A67, {2-Amino-6-[2-((S)-3-fluoropyrrolidine-1-sulfonyl)phenyl]quinazolin-4-yl}-(1,3-dihydroisoindol-2-yl)methanone] | 6.00 to 8.00 |

From patent publication US8546565B2, “Quinazolinamide derivatives” (Merck Patent Gesellschaft, priority 2008, dated 2013)
